Measured values reported in US9884056B2, “Oral pharmaceutical dosage forms” (Durect Corporation, priority 2008, dated 2018).

Tests used:
[1] = after an IV dose, PET; cited from earlier work
[2] = In vitro volatilization test; assay type: physicochemical; conditions: 40 mg in petri dish on hot plate
Excerpt: In order to further assess the abuse-resistance performance of abuse-resistant dosage forms produced according to the present invention, the following in vitro volatilization test was developed. In particular, intentional abuse of controlled release pharmaceutical dosage forms may alternatively be carried out by volatilization (smoking, or free-basing) techniques that can liberate active agent (in immediately active form) from commercially available controlled release carrier systems. Accordingly, a preliminary in vitro volatilization test was developed in order to assess: (1) whether a free base form of an active agent (in this case, oxycodone) was more volatile than the salt (HCl) form; and (2) whether abuse-resistant dosage forms produced according to the instant invention can prevent inhalation abuse through volatilization.
Each petri dish was fitted with a watch glass as a cover, and the covered test dishes were placed on a hot plate (setting 10). After 30 seconds each watch glass was replaced with a fresh watch glass, and this step was repeated three times (to obtain 4 time points). Any residue deposited on the bottom side of the test watch glasses was carefully transferred with an Alpha Swab (TX 761) into 40/60 ethanol/0.005M HCl solution, and the concentration of oxycodone solution was determined by HPLC. The observations taken during the test were as follows. […]

[3] = cited from earlier work

## COC(=O)C(c1ccccc1)C1CCCCN1 (centres unmarked) [^11C-labeled methylphenidate]
[1]
  brain clearance half life: 1.5 h
  brain uptake Tmax: < 0.167 h

## COc1ccc2c3c1O[C@H]1C(=O)CC[C@@]4(O)[C@@H](C2)N(C)CC[C@]314.Cl [oxycodone HCl]
[2]
  observation upon heating in volatilization test: extensive degradation and charring

## COc1ccc2c3c1O[C@H]1C(=O)CC[C@@]4(O)[C@@H](C2)N(C)CC[C@]314 [oxycodone free base form, oxycodone]
[2]
  observation upon heating in volatilization test: vaporizes/sublimes upon heating

## COC(=O)C(c1ccccc1)C1CCCCN1 (racemic) [methylphenidate, dl-threo-methyl-2-phenyl-2-(2-piperidyl) acetate]
[3]; excreted in the urine
  dose deesterified to the inactive major metabolite, ritalinic acid: About 70%
[3]; immediate release, oral
  Tmax following oral administration (mean): 1.5 h
[3]; in vivo
  d-threo to l-threo plasma concentration ratio: ~10:1
  systemic half-life: approximately 3 hours
